Experimental data: US9662372B2 (priority 2013, dated 2017)
Several values for one entry are separate records, joined by “and”; a condition that tells them apart may be missing. Identical values can stand only once. Where a SMILES comes first, the peptide text is derived from it. Where no end group is shown, it is not given here. [ ]: non-standard residue; d: D form. βAla = NCCC(=O)O

Columns and labels:
[1] = test system: C. difficile ATCC 9689; type: cell-based, Clostridium difficile
[2] = test system: C. difficile ATCC 9689; assay: Bacterial mass in wells of PM panels (OD 750 nm); type: cell-based, Clostridium difficile; conditions: OD difference with vs without C. difficile, 72 h
[3] = target: T1, Clostridium difficile Toxin B (Clostridioides difficile, UniProt P18177); assay: Toxin B inactivation, CHO-k1 microwell dye reduction assay; type: cell-based; conditions: for Reduction of measured toxin B: at all tested concentrations, toxin B at high level
T1 construct: purchased List Biological Laboratory (Listlab, Campbell, Calif., USA)
T1 sequence (P18177 whole entry): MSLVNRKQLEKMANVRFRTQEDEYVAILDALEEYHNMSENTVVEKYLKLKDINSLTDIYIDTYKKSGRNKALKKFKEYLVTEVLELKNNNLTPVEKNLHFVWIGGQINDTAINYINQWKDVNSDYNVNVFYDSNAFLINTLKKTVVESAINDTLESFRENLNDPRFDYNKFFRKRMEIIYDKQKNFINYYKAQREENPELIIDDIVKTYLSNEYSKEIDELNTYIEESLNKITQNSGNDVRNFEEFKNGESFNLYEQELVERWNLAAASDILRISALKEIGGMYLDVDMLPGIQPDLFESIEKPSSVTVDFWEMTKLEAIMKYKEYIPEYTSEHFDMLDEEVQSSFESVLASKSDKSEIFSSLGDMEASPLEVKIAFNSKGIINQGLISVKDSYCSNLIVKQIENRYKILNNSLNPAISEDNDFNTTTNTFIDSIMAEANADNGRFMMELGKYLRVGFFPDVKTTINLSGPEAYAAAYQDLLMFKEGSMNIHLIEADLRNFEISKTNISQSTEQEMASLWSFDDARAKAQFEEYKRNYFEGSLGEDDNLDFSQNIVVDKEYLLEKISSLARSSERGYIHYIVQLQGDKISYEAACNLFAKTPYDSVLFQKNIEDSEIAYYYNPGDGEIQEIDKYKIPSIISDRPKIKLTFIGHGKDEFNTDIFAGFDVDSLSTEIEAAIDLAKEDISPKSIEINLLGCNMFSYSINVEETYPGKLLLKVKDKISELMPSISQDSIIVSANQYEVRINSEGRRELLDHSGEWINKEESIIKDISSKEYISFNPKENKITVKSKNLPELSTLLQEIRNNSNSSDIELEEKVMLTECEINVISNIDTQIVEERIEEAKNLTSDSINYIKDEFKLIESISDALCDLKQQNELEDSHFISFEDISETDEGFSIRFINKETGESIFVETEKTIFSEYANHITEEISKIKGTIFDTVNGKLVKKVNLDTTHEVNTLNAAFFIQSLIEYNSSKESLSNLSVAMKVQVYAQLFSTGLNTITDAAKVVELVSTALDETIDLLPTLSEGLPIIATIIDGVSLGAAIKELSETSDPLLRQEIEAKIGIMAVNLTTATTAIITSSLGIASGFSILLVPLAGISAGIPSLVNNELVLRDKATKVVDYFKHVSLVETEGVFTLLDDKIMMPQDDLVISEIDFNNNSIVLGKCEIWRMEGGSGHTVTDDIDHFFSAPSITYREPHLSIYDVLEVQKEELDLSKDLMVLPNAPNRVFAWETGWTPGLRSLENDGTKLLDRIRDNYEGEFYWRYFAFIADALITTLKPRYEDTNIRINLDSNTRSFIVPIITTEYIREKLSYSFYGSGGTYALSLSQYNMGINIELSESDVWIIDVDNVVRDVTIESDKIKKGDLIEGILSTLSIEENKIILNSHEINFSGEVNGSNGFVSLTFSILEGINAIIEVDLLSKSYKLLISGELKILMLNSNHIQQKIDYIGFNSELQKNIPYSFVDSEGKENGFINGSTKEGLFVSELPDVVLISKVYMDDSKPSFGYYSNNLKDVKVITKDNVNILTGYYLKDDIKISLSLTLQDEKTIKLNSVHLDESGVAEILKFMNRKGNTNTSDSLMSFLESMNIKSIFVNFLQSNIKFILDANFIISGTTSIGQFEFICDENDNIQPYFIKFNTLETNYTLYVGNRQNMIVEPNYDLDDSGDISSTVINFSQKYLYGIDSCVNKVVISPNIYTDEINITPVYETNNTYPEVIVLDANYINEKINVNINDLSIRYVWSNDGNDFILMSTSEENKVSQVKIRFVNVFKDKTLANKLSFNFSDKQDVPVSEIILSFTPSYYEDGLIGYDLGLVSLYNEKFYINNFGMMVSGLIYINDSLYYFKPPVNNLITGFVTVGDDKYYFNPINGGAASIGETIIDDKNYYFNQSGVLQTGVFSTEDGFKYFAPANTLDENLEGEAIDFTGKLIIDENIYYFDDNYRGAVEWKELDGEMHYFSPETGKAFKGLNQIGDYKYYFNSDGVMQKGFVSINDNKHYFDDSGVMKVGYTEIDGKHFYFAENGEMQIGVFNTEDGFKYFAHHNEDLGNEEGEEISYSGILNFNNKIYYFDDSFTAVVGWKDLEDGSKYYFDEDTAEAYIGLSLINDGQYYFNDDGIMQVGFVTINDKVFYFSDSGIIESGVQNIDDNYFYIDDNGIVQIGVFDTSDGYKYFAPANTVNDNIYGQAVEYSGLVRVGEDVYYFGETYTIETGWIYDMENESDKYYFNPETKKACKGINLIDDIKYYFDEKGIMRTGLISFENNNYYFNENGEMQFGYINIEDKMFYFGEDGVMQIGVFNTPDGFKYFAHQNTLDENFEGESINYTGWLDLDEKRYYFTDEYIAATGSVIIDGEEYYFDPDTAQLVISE

[4] = target: Clostridium difficile Toxin B (Clostridium difficile) (UniProt P18177)
[5] = test system: crude toxin preparation from E. coli O157; type: cell-based, Escherichia coli O157
[6] = test system: crude toxin preparation from B. cerus; type: cell-based, Bacillus cereus
[7] = test system: crude toxin preparation from C. perfringens; type: cell-based
[8] = test system: crude toxin preparation from C. sordellii; type: cell-based
[9] = target: Shiga toxin 1 (UniProt P08026+P69178)
Sequence of Shiga toxin 1 (P08026 23-315 limits assumed): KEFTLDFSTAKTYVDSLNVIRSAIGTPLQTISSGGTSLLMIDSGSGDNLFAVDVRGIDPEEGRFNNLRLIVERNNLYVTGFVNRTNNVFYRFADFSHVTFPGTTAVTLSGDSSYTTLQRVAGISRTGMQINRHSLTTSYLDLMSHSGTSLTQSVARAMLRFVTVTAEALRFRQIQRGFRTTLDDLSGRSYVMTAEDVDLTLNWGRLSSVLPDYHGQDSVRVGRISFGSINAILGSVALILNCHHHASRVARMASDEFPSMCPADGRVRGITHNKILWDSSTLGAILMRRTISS
Sequence of Shiga toxin 1 (P69178 21-89 limits assumed): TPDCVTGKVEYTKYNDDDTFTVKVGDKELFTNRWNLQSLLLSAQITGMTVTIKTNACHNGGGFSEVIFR

[10] = target: Shiga toxin 2 (Escherichia phage 933W, UniProt P09385+P09386)
Sequence of Shiga toxin 2 (P09385 23-319 limits assumed): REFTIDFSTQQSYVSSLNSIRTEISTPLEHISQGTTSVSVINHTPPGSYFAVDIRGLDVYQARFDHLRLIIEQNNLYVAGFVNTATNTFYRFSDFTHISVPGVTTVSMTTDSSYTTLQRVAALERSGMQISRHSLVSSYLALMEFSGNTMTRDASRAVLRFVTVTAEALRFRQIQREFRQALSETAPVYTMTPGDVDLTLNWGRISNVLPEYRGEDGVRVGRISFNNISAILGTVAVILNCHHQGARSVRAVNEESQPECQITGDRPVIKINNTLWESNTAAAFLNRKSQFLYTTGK
Sequence of Shiga toxin 2 (P09386 20-89 limits assumed): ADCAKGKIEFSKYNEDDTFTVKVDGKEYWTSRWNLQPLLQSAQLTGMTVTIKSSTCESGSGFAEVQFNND

[11] = nitrogen source (PM03/06/07/08)
[12] = phosphorus/sulfur source panel PM04
[13] = at the lowest concentration of 0.03 μM, toxin B 1.2-100 ng/ml

| Molecule | Toxin [1] | C. difficile Mass [2, 11] | further results |
| --- | --- | --- | --- |
| CCC(C)C(NC(=O)C(N)CC(C)C)C(=O)O (stereo not drawn) [Leu-Ile] (H-Leu-Ile-OH; configuration not given here) | <0.122 ng/mL | 0.0523 OD (750 nm) | Effect on toxin production (in words) [1]: toxin production inhibitor |
| CC(C)CC(N)C(=O)NC(CC(C)C)C(=O)NC(CC(C)C)C(=O)O (stereo not drawn) [Leu-Leu-Leu] (H-Leu-Leu-Leu-OH; configuration not given here) | <0.122 ng/mL | 0.0463 OD (750 nm) | Effect on toxin production (in words) [1]: toxin production inhibitor |
| CC(C)C[C@H](NC(=O)[C@@H](N)CC(C)C)C(=O)O [Leu-Leu] | <0.122 ng/mL | 0.0530 OD (750 nm) | Effect on toxin production (in words) [1]: toxin production inhibitor |
| CSCCC(NC(=O)C(N)CC(C)C)C(=O)O (stereo not drawn) [Leu-Met] (H-Leu-Met-OH; configuration not given here) | <0.122 ng/mL | 0.0501 OD (750 nm) | Effect on toxin production (in words) [1]: toxin production inhibitor |
| CC(C)CC(N)C(=O)NC(Cc1ccccc1)C(=O)O (stereo not drawn) [Leu-Phe] (H-Leu-Phe-OH; configuration not given here) | <0.122 ng/mL | 0.0538 OD (750 nm) | Effect on toxin production (in words) [1]: toxin production inhibitor |
| CCCCN [N-Butylamine] | 5679 ng/mL | 0.0407 OD (750 nm) |  |
| O=NO [Nitrite] | 383 ng/mL | 0.0333 OD (750 nm) |  |
| O=P(O)(O)OP(=O)(O)O [Pyrophosphate] | <0.122 ng/mL |  | C. difficile Mass [2, 12]: 0.0075 OD (750 nm) |
| OP(O)(O)=S [Thiophosphate] | <0.122 ng/mL |  | C. difficile Mass [2, 12]: 0.0373 OD (750 nm) |
| O=P1([O-])OP(=O)([O-])OP(=O)([O-])O1.[Na+].[Na+].[Na+] [Trimetaphosphate] | <0.122 ng/mL |  | C. difficile Mass [2, 12]: 0.0493 OD (750 nm) |
| NCCCCC(=O)O [δ-Amino-N-Valeric acid] | 435 ng/mL | 0.0424 OD (750 nm) |  |
| NCCCCCC(=O)O [ε-Amino-N-Caproic acid] | 3389 ng/mL | 0.0366 OD (750 nm) |  |
| Ala-Gly | 2130 ng/mL |  | C. difficile Mass ([2]; carbon source (PM01/PM02)): 0.0934 OD (750 nm) |
| Ala-Pro | <0.122 ng/mL | 0.0507 OD (750 nm) |  |
| Arg-Ala | 10080 ng/mL | 0.0456 OD (750 nm) |  |
| Arg-Arg | 8229 ng/mL | 0.0435 OD (750 nm) |  |
| Arg-Asp | 10371 ng/mL | 0.0444 OD (750 nm) |  |
| Arg-Gln | 8912 ng/mL | 0.0476 OD (750 nm) |  |
| Arg-Glu | 4059 ng/mL | 0.0404 OD (750 nm) |  |
| Arg-Phe | 6541 ng/mL | 0.0467 OD (750 nm) |  |
| Arg-Ser | 7608 ng/mL | 0.0448 OD (750 nm) |  |

| Molecule | Toxin [1] | C. difficile Mass [2, 11] | further results |
| --- | --- | --- | --- |
| Arg-Trp | 8423 ng/mL | 0.0499 OD (750 nm) |  |
| Arg-Tyr | 8819 ng/mL | 0.0455 OD (750 nm) |  |
| Gly-Arg | 352 ng/mL | 0.0403 OD (750 nm) |  |
| Gly-Asp | 1507 ng/mL |  | C. difficile Mass ([2]; carbon source (PM01/PM02)): 0.1004 OD (750 nm) |
| Gly-D-Asp | 1537 ng/mL | 0.0467 OD (750 nm) |  |
| Gly-D-Ser | 297 ng/mL | 0.0543 OD (750 nm) |  |
| Gly-D-Thr | 157 ng/mL | 0.0549 OD (750 nm) |  |
| Gly-Glu | 366 ng/mL and 184 ng/mL | 0.0472 OD (750 nm) | C. difficile Mass ([2]; carbon source (PM01/PM02)): 0.0411 OD (750 nm) |
| Gly-Gly-Gly | 1811 ng/mL | 0.0456 OD (750 nm) |  |
| Gly-Gly-Ile | <0.122 ng/mL | 0.0421 OD (750 nm) |  |
| Gly-Gly-Leu | 215 ng/mL | 0.0305 OD (750 nm) |  |
| Gly-Phe-Phe | 298 ng/mL | 0.2751 OD (750 nm) |  |
| Gly-Pro | 3798 ng/mL | 0.0414 OD (750 nm) |  |
| Gly-Ser | <0.122 ng/mL | 0.0471 OD (750 nm) |  |
| Gly-Trp | 3632 ng/mL | 0.0431 OD (750 nm) |  |
| His-Leu | 376 ng/mL | 0.0495 OD (750 nm) |  |
| His-Lys | 6993 ng/mL | 0.0453 OD (750 nm) |  |
| His-Pro | 8568 ng/mL | 0.0481 OD (750 nm) |  |
| His-Trp | 178 ng/mL | 0.0442 OD (750 nm) |  |
| Ile-Arg | 122 ng/mL | 0.0442 OD (750 nm) |  |
| Leu-Asn | 381 ng/mL | 0.0482 OD (750 nm) |  |

| Molecule | Toxin [1] | C. difficile Mass [2, 11] | further results |
| --- | --- | --- | --- |
| Leu-Ser | 116 ng/mL | 0.037 OD (750 nm) |  |
| Leu-Trp | <0.122 ng/mL | 0.0380 OD (750 nm) | Effect on toxin production (in words) [1]: toxin production inhibitor |
| Lys-Arg | 5536 ng/mL | 0.0502 OD (750 nm) |  |
| Lys-Asp | 335 ng/mL | 0.0525 OD (750 nm) |  |
| Lys-Glu | 271 ng/mL | 0.0425 OD (750 nm) |  |
| Lys-Gly | 1950 ng/mL | 0.047 OD (750 nm) |  |
| Lys-Lys | 150 ng/mL | 0.0427 OD (750 nm) |  |
| Lys-Phe | <0.122 ng/mL | 0.0533 OD (750 nm) |  |
| Lys-Ser | 5105 ng/mL | 0.0426 OD (750 nm) |  |
| Lys-Trp | 5277 ng/mL | 0.006 OD (750 nm) |  |
| Pro-Arg | 2967 ng/mL | 0.0442 OD (750 nm) |  |
| Pro-Hyp | 7523 ng/mL | 0.045 OD (750 nm) |  |
| Ser-Leu | 187 ng/mL | 0.0404 OD (750 nm) |  |
| Ser-Pro | 7136 ng/mL | 0.0472 OD (750 nm) |  |
| Thr-Gln | <0.122 ng/mL | 0.0403 OD (750 nm) |  |
| Thr-Pro | 4772 ng/mL | 0.0355 OD (750 nm) |  |
| Trp-Ala | 415 ng/mL | 0.0489 OD (750 nm) |  |
| Trp-Arg | 6468 ng/mL | 0.0628 OD (750 nm) |  |
| Trp-Trp | 4104 ng/mL | 0.055 OD (750 nm) |  |
| Trp-Tyr | 134 ng/mL | 0.0451 OD (750 nm) |  |
| Trp-Val | 184 ng/mL | 0.0276 OD (750 nm) |  |

| Molecule | Toxin [1] | C. difficile Mass [2, 11] | further results |
| --- | --- | --- | --- |
| Tyr-Ala | 186 ng/mL | 0.0331 OD (750 nm) |  |
| Tyr-Phe | <0.122 ng/mL | 0.0559 OD (750 nm) |  |
| Tyr-Tyr | 174 ng/mL | 0.0415 OD (750 nm) |  |
| Val-Asp | 225 ng/mL | 0.0469 OD (750 nm) |  |
| Val-Glu | 178 ng/mL | 0.0481 OD (750 nm) |  |
| Val-Pro | 183 ng/mL | 0.0425 OD (750 nm) |  |
| Val-Ser | <0.122 ng/mL | 0.0455 OD (750 nm) |  |
| Val-Tyr-Val | 296 ng/mL | 0.0382 OD (750 nm) |  |
| [dA]-Gly-Gly | 515 ng/mL | 0.0538 OD (750 nm) |  |
| [βAla]-Gly | 1547 ng/mL | 0.0389 OD (750 nm) |  |
| [βAla]-His | 8265 ng/mL | 0.0473 OD (750 nm) |  |
| poly-D-lysine |  |  | Toxin B inactivation ([3]; 50 ng/ml C. difficile Toxin B): effectively inactivates |
| poly-D-lysine (peptide) |  |  | concentration at which significant toxin inactivation begins [4]: 1 µg/mL |
| poly-L-lysine |  |  | Toxin B inactivation ([3]; 50 ng/ml C. difficile Toxin B): effectively inactivates |
| poly-L-lysine (peptide) |  |  | concentration at which significant toxin inactivation begins [4]: 1 µg/mL |
| polyarginine |  |  | Reduction of measured toxin B [3]: dramatically reduce; Toxin B inactivation [3, 13]: completely inactivated |
| polylysine |  |  | Concentration at which significant toxin inactivation begins ([3]; 50 ng/ml C. difficile Toxin B, dose response 0.042-42.5 ug/ml): approximately 1 ug/ml |
| protamine |  |  | Reduction of measured toxin B [3]: dramatically reduce; Toxin B inactivation [3, 13]: completely inactivated; Optimal concentration against toxin B ([3]; double dilution experiment, FIG. 4): 0.26 µM; Toxin inactivation [5]: did not inactivate; Toxin inactivation [6]: did not inactivate; Toxin inactivation [7]: did not inactivate; Toxin inactivation [8]: did not inactivate; Toxin inactivation [9]: did not inactivate; Toxin inactivation [10]: did not inactivate |
| γ-D-Glu-Gly | 10122 ng/mL | 0.0519 OD (750 nm) |  |
